How the values were obtained:
GlnA3Mt = biological target: T1, GlnA3Mt (Mycobacterium tuberculosis, UniProt O07752)
T1 construct: gene glnA3

GlnA3Sc = biological target: T2, GlnA3Sc (Streptomyces coelicolor, UniProt Q9KZC7); experiment: GS activity assay, phosphate release; assay type: biochemical; conditions: 50 mM substrate; glutamate and ATP co-substrates
T2 construct: gene glnA3; His-tagged (pYT/his-glnA3, pYT9 derivative) from E. coli BL21
T2 sequence (Q9KZC7 whole entry): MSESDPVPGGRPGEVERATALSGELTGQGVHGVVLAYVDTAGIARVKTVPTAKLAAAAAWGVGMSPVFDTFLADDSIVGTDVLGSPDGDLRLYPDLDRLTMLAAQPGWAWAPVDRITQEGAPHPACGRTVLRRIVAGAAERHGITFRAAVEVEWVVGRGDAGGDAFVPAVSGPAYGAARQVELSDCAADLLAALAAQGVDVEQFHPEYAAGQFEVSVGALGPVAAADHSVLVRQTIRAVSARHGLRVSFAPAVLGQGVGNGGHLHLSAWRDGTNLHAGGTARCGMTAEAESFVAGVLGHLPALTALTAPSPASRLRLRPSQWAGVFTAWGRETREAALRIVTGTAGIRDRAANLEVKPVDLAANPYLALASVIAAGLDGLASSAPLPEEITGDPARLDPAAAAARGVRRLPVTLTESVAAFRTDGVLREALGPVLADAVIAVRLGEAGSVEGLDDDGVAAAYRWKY

T1 sequence (O07752 1-450): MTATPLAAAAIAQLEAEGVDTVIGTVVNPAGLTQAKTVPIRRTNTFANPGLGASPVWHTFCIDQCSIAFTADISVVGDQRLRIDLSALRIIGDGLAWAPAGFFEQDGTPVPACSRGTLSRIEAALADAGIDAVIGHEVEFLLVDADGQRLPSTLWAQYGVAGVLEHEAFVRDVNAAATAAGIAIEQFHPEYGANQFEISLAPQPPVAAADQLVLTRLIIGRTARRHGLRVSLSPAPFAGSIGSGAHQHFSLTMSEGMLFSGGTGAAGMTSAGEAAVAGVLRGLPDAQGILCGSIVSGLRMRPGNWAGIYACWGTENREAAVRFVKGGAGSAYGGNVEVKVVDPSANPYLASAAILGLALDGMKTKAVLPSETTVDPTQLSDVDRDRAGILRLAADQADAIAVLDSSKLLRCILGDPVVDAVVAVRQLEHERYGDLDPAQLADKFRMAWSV

| Compound | GS activity assay, phosphate release; HPLC/ESI-MS of gamma-glutamylspermidine (GlnA3Mt) | GS activity assay, phosphate release (GlnA3Sc) |
| --- | --- | --- |
| NCCCCNCCCN [spermidine] | the highest activity was observed with spermine and spermidine | possesses the highest turnover rate when using spermine or spermidine as substrates |
| NCCCNCCCCNCCCN [spermine] |  | possesses the highest turnover rate when using spermine or spermidine as substrates |

From publication PMC11841054 (Journal of Bacteriology, 2025)
